Measured values taken from US20260035382A1, “COMPOUNDS AS SUMO ACTIVATING ENZYME INHIBITORS” (WIGEN BIOMEDICINE TECHNOLOGY (SHANGHAI) CO., LTD., priority 2022, published 2026).

Target: SAE (Homo sapiens (Human), UniProt Q9UBT2)
Experiment: In vitro inhibitory activity assay against SAE (SUMO-2/3 immunofluorescence in HCT116 cells)
Assay type: cell-based
Conditions: 6 h incubation, class symbols, read-out: SUMO IF IC50
How it was run: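 HCT116 cells treated with compounds for 6 h at 37 °C, then fixed, permeabilized and immunostained for SUMO-2/3 with FITC secondary detection. Fluorescence compared with DMSO control to give inhibition rate and IC50.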

Chain of SAE (Q9UBT2 whole entry): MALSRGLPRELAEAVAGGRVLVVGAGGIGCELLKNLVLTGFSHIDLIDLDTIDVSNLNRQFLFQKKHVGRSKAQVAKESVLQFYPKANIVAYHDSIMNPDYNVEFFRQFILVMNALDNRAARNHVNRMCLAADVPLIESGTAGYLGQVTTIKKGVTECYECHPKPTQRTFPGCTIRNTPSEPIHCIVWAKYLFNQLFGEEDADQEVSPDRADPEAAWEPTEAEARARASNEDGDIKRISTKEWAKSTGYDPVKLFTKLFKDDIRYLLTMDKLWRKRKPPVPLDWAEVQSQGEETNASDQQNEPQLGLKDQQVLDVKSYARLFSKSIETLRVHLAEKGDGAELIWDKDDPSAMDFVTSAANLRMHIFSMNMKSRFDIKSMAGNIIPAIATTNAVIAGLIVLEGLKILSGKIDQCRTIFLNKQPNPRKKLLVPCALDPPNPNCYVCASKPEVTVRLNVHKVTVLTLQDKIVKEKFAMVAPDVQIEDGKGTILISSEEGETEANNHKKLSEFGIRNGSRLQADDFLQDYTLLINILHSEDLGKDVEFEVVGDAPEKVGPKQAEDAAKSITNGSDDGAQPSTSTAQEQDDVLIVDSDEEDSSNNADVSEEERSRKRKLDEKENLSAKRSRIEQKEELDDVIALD
Chain of SAE (Q9UBE0 whole entry partner): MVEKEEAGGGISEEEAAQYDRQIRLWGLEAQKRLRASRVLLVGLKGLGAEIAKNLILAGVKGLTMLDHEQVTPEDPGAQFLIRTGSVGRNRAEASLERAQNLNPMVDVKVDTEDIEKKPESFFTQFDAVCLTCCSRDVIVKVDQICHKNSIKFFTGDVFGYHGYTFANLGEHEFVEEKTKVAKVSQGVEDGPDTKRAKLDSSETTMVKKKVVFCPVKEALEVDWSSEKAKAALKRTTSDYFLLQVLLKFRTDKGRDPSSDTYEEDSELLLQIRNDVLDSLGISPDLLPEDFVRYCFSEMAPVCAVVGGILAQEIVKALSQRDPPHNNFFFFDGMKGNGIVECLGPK

| Compound | IC50 |
| --- | --- |
| NS(=O)(=O)OC[C@H]1C[C@@H](Nc2ncncc2C(=O)c2cc3c(s2)CO[C@]32NCCc3ccc(Cl)cc32)C[C@@H]1O [Compound 239] | 50 to 200 nM |
| NS(=O)(=O)OC[C@H]1C[C@@H](Nc2ncncc2C(=O)c2cc3c(s2)CC[C@]32NCC3(CC3)c3ccc(Cl)cc32)C[C@@H]1O [Compound 240] | 50 to 200 nM |
| NS(=O)(=O)OC[C@H]1C[C@@H](Nc2ncncc2C(=O)c2cc3c(s2)CC[C@]32NC3(CC3)Cc3ccc(Cl)cc32)C[C@@H]1O [Compound 241] | 50 to 200 nM |
| NS(=O)(=O)OC[C@H]1C[C@@H](Nc2ncncc2C(=O)c2cc3c(s2)CC[C@@]32OCCc3ccc(Cl)cc32)C[C@@H]1O [Compound 242] | > 200 nM |
| NS(=O)(=O)OC[C@H]1C[C@@H](Nc2ncncc2C(=O)c2cc3c(s2)CC[C@]32OCCc3ccc(Cl)cc32)C[C@@H]1O [Compound 243] | ≤ 50 nM |
| NS(=O)(=O)OC[C@H]1C[C@@H](Nc2ncncc2C(=O)c2cc3c(s2)CCCC32OCCc3ccccc32)C[C@@H]1O (stereo partly drawn) [Compound 244] | > 200 nM |
| NS(=O)(=O)OC[C@H]1C[C@@H](Nc2ncncc2C(=O)c2cc3c(s2)CCC[C@@]32OCCc3ccccc32)C[C@@H]1O [Compound 245] | > 200 nM |
| NS(=O)(=O)OC[C@H]1C[C@@H](Nc2ncncc2C(=O)c2cc3c(s2)CCC[C@]32OCCc3ccccc32)C[C@@H]1O [Compound 246] | 50 to 200 nM |
| NS(=O)(=O)OC[C@H]1C[C@@H](Nc2ncncc2C(=O)c2cc3c(s2)CCCC32OCCc3ccc(F)cc32)C[C@@H]1O (stereo partly drawn) [Compound 247] | 50 to 200 nM |
| NS(=O)(=O)OC[C@H]1C[C@@H](Nc2ncncc2C(=O)c2cc3c(s2)CCC[C@@]32OCCc3ccc(F)cc32)C[C@@H]1O [Compound 248] | > 200 nM |
| NS(=O)(=O)OC[C@H]1C[C@@H](Nc2ncncc2C(=O)c2cc3c(s2)CCC[C@]32OCCc3ccc(F)cc32)C[C@@H]1O [Compound 249] | ≤ 50 nM |
| N#Cc1ccc2c(c1)C1(CCCc3sc(C(=O)c4cncnc4N[C@@H]4C[C@H](COS(N)(=O)=O)[C@@H](O)C4)cc31)OCC2 (stereo partly drawn) [Compound 250] | 50 to 200 nM |
| N#Cc1ccc2c(c1)[C@]1(CCCc3sc(C(=O)c4cncnc4N[C@@H]4C[C@H](COS(N)(=O)=O)[C@@H](O)C4)cc31)OCC2 [Compound 251] | > 200 nM |
| N#Cc1ccc2c(c1)[C@@]1(CCCc3sc(C(=O)c4cncnc4N[C@@H]4C[C@H](COS(N)(=O)=O)[C@@H](O)C4)cc31)OCC2 [Compound 252] | ≤ 50 nM |
| CN1Cc2sc(C(=O)c3cncnc3N[C@@H]3C[C@H](COS(N)(=O)=O)[C@@H](O)C3)cc2C2(C1)OCCc1ccccc12 (stereo partly drawn) [Compound 253] | 50 to 200 nM |
| CN1Cc2sc(C(=O)c3cncnc3N[C@@H]3C[C@H](COS(N)(=O)=O)[C@@H](O)C3)cc2[C@@]2(C1)OCCc1ccccc12 [Compound 254] | > 200 nM |
| CN1Cc2sc(C(=O)c3cncnc3N[C@@H]3C[C@H](COS(N)(=O)=O)[C@@H](O)C3)cc2[C@]2(C1)OCCc1ccccc12 [Compound 255] | 50 to 200 nM |
| CN1Cc2sc(C(=O)c3cncnc3N[C@@H]3C[C@H](COS(N)(=O)=O)[C@@H](O)C3)cc2C2(C1)OCCc1ccc(F)cc12 (stereo partly drawn) [Compound 256] | 50 to 200 nM |
| CN1Cc2sc(C(=O)c3cncnc3N[C@@H]3C[C@H](COS(N)(=O)=O)[C@@H](O)C3)cc2[C@@]2(C1)OCCc1ccc(F)cc12 [Compound 257] | > 200 nM |

| Compound | IC50 |
| --- | --- |
| CN1Cc2sc(C(=O)c3cncnc3N[C@@H]3C[C@H](COS(N)(=O)=O)[C@@H](O)C3)cc2[C@]2(C1)OCCc1ccc(F)cc12 [Compound 258] | ≤ 50 nM |
| CN1Cc2sc(C(=O)c3cncnc3N[C@@H]3C[C@H](COS(N)(=O)=O)[C@@H](O)C3)cc2C2(C1)OCCc1ccc(Cl)cc12 (stereo partly drawn) [Compound 259] | ≤ 50 nM |
| CN1Cc2sc(C(=O)c3cncnc3N[C@@H]3C[C@H](COS(N)(=O)=O)[C@@H](O)C3)cc2[C@@]2(C1)OCCc1ccc(Cl)cc12 [Compound 260] | > 200 nM |
| CN1Cc2sc(C(=O)c3cncnc3N[C@@H]3C[C@H](COS(N)(=O)=O)[C@@H](O)C3)cc2[C@]2(C1)OCCc1ccc(Cl)cc12 [Compound 261] | ≤ 50 nM |
| CCN1Cc2sc(C(=O)c3cncnc3N[C@@H]3C[C@H](COS(N)(=O)=O)[C@@H](O)C3)cc2C2(C1)OCCc1ccc(F)cc12 (stereo partly drawn) [Compound 262] | 50 to 200 nM |
| CCN1Cc2sc(C(=O)c3cncnc3N[C@@H]3C[C@H](COS(N)(=O)=O)[C@@H](O)C3)cc2[C@@]2(C1)OCCc1ccc(F)cc12 [Compound 263] | > 200 nM |
| CCN1Cc2sc(C(=O)c3cncnc3N[C@@H]3C[C@H](COS(N)(=O)=O)[C@@H](O)C3)cc2[C@]2(C1)OCCc1ccc(F)cc12 [Compound 264] | ≤ 50 nM |
| CCN1Cc2sc(C(=O)c3cncnc3N[C@@H]3C[C@H](COS(N)(=O)=O)[C@@H](O)C3)cc2C2(C1)OCCc1ccc(Cl)cc12 (stereo partly drawn) [Compound 265] | ≤ 50 nM |
| CCN1Cc2sc(C(=O)c3cncnc3N[C@@H]3C[C@H](COS(N)(=O)=O)[C@@H](O)C3)cc2[C@@]2(C1)OCCc1ccc(Cl)cc12 [Compound 266] | > 200 nM |
| CCN1Cc2sc(C(=O)c3cncnc3N[C@@H]3C[C@H](COS(N)(=O)=O)[C@@H](O)C3)cc2[C@]2(C1)OCCc1ccc(Cl)cc12 [Compound 267] | ≤ 50 nM |
| CC(C)N1Cc2sc(C(=O)c3cncnc3N[C@@H]3C[C@H](COS(N)(=O)=O)[C@@H](O)C3)cc2C2(C1)OCCc1ccc(F)cc12 (stereo partly drawn) [Compound 268] | 50 to 200 nM |
| CC(C)N1Cc2sc(C(=O)c3cncnc3N[C@@H]3C[C@H](COS(N)(=O)=O)[C@@H](O)C3)cc2[C@@]2(C1)OCCc1ccc(F)cc12 [Compound 269] | > 200 nM |
| CC(C)N1Cc2sc(C(=O)c3cncnc3N[C@@H]3C[C@H](COS(N)(=O)=O)[C@@H](O)C3)cc2[C@]2(C1)OCCc1ccc(F)cc12 [Compound 270] | ≤ 50 nM |
| CC(C)N1Cc2sc(C(=O)c3cncnc3N[C@@H]3C[C@H](COS(N)(=O)=O)[C@@H](O)C3)cc2C2(C1)OCCc1ccc(Cl)cc12 (stereo partly drawn) [Compound 271] | 50 to 200 nM |
| CC(C)N1Cc2sc(C(=O)c3cncnc3N[C@@H]3C[C@H](COS(N)(=O)=O)[C@@H](O)C3)cc2[C@@]2(C1)OCCc1ccc(Cl)cc12 [Compound 272] | > 200 nM |
| CC(C)N1Cc2sc(C(=O)c3cncnc3N[C@@H]3C[C@H](COS(N)(=O)=O)[C@@H](O)C3)cc2[C@]2(C1)OCCc1ccc(Cl)cc12 [Compound 273] | ≤ 50 nM |
| NS(=O)(=O)OC[C@H]1C[C@@H](Nc2ncncc2C(=O)c2cc3c(s2)CN(C2CC2)C[C@@]32OCCc3ccc(F)cc32)C[C@@H]1O [Compound 275] | > 200 nM |
| NS(=O)(=O)OC[C@H]1C[C@@H](Nc2ncncc2C(=O)c2cc3c(s2)CN(C2CC2)C[C@]32OCCc3ccc(F)cc32)C[C@@H]1O [Compound 276] | ≤ 50 nM |
| NS(=O)(=O)OC[C@H]1C[C@@H](Nc2ncncc2C(=O)c2cc3c(s2)CN(C2CC2)CC32OCCc3ccc(Cl)cc32)C[C@@H]1O (stereo partly drawn) [Compound 277] | 50 to 200 nM |

| Compound | IC50 |
| --- | --- |
| NS(=O)(=O)OC[C@H]1C[C@@H](Nc2ncncc2C(=O)c2cc3c(s2)CN(C2CC2)C[C@@]32OCCc3ccc(Cl)cc32)C[C@@H]1O [Compound 278] | > 200 nM |
| NS(=O)(=O)OC[C@H]1C[C@@H](Nc2ncncc2C(=O)c2cc3c(s2)CN(C2CC2)C[C@]32OCCc3ccc(Cl)cc32)C[C@@H]1O [Compound 279] | ≤ 50 nM |
| NS(=O)(=O)OC[C@H]1C[C@@H](Nc2ncncc2C(=O)c2cc3c(s2)CCC32OCCc3ccccc32)C[C@@H]1O (stereo partly drawn) [Compound 280] | > 200 nM |
| NS(=O)(=O)OC[C@H]1C[C@@H](Nc2ncncc2C(=O)c2cc3c(s2)CC[C@@]32OCCc3ccccc32)C[C@@H]1O [Compound 281] | > 200 nM |
| NS(=O)(=O)OC[C@H]1C[C@@H](Nc2ncncc2C(=O)c2cc3c(s2)CC[C@]32OCCc3ccccc32)C[C@@H]1O [Compound 282] | 50 to 200 nM |
| NS(=O)(=O)OC[C@H]1C[C@@H](Nc2ncncc2C(=O)c2cc3c(s2)CCC32OCCc3ccc(F)cc32)C[C@@H]1O (stereo partly drawn) [Compound 283] | 50 to 200 nM |
| NS(=O)(=O)OC[C@H]1C[C@@H](Nc2ncncc2C(=O)c2cc3c(s2)CC[C@@]32OCCc3ccc(F)cc32)C[C@@H]1O [Compound 284] | > 200 nM |
| NS(=O)(=O)OC[C@H]1C[C@@H](Nc2ncncc2C(=O)c2cc3c(s2)CC[C@]32OCCc3ccc(F)cc32)C[C@@H]1O [Compound 285] | 50 to 200 nM |
| N#Cc1ccc2c(c1)C1(CCc3sc(C(=O)c4cncnc4N[C@@H]4C[C@H](COS(N)(=O)=O)[C@@H](O)C4)cc31)OCC2 (stereo partly drawn) [Compound 286] | 50 to 200 nM |
| N#Cc1ccc2c(c1)[C@]1(CCc3sc(C(=O)c4cncnc4N[C@@H]4C[C@H](COS(N)(=O)=O)[C@@H](O)C4)cc31)OCC2 [Compound 287] | > 200 nM |
| N#Cc1ccc2c(c1)[C@@]1(CCc3sc(C(=O)c4cncnc4N[C@@H]4C[C@H](COS(N)(=O)=O)[C@@H](O)C4)cc31)OCC2 [Compound 288] | ≤ 50 nM |
| NS(=O)(=O)OC[C@H]1C[C@@H](Nc2ncncc2C(=O)c2cc3c(s2)C=CC32OCCc3ccccc32)C[C@@H]1O (stereo partly drawn) [Compound 289] | 50 to 200 nM |
| NS(=O)(=O)OC[C@H]1C[C@@H](Nc2ncncc2C(=O)c2cc3c(s2)C=C[C@@]32OCCc3ccccc32)C[C@@H]1O [Compound 290] | > 200 nM |
| NS(=O)(=O)OC[C@H]1C[C@@H](Nc2ncncc2C(=O)c2cc3c(s2)C=C[C@]32OCCc3ccccc32)C[C@@H]1O [Compound 291] | 50 to 200 nM |
| NS(=O)(=O)OC[C@H]1C[C@@H](Nc2ncncc2C(=O)c2cc3c(s2)C=CC32OCCc3ccc(F)cc32)C[C@@H]1O (stereo partly drawn) [Compound 292] | 50 to 200 nM |
| NS(=O)(=O)OC[C@H]1C[C@@H](Nc2ncncc2C(=O)c2cc3c(s2)C=C[C@@]32OCCc3ccc(F)cc32)C[C@@H]1O [Compound 293] | > 200 nM |
| NS(=O)(=O)OC[C@H]1C[C@@H](Nc2ncncc2C(=O)c2cc3c(s2)C=C[C@]32OCCc3ccc(F)cc32)C[C@@H]1O [Compound 294] | ≤ 50 nM |
| NS(=O)(=O)OC[C@H]1C[C@@H](Nc2ncncc2C(=O)c2cc3c(s2)C=CC32OCCc3ccc(Cl)cc32)C[C@@H]1O (stereo partly drawn) [Compound 295] | ≤ 50 nM |
| NS(=O)(=O)OC[C@H]1C[C@@H](Nc2ncncc2C(=O)c2cc3c(s2)C=C[C@@]32OCCc3ccc(Cl)cc32)C[C@@H]1O [Compound 296] | > 200 nM |
